Laboratory results reported in ChEMBL document CHEMBL3885881, “DrugMatrix”.

Organism: Rattus norvegicus
Test: DrugMatrix - Regimen: Daily Repeat
Type: toxicity, organism-based, Sprague-Dawley
Set-up: regimen Daily Repeat, gender Male, age 6-8 weeks
Conditions: in vivo, po, route oral GAVAGE, vehicle .5 % CMC; for ALBUMIN / ALKALINE PHOSPHATASE / ASPARTATE AMINOTRANSFERASE / BLOOD UREA NITROGEN / CARBON DIOXIDE / CHLORIDE / CHOLESTEROL / CREATINE PHOSPHOKINASE / CREATININE / GLUCOSE / LACTATE DEHYDROGENASE / PHOSPHORUS / POTASSIUM / SODIUM / TOTAL BILIRUBIN / TOTAL PROTEIN / URIC ACID / ALANINE AMINOTRANSFERASE: tissue Plasma; for ABSOLUTE BASOPHIL / ABSOLUTE EOSINOPHIL / ABSOLUTE LYMPHOCYTE / ABSOLUTE SEGMENTED NEUTROPHIL / BASOPHIL / EOSINOPHIL / ERYTHROCYTE COUNT / HEMATOCRIT / LEUKOCYTE COUNT / LYMPHOCYTE / MEAN CORPUSCULAR HEMOGLOBIN / MEAN CORPUSCULAR HEMOGLOBIN CONCENTRATION / MEAN CORPUSCULAR VOLUME / MONOCYTE / NEUTROPHIL / NUCLEATED RED BLOOD CELLS / PLATELET COUNT: tissue Blood
[1] = 3 mg/kg, 120 h, dose level Low, time 5 day
[2] = 250 mg/kg, 72 h, dose level M1, time 3 day
[3] = 250 mg/kg, 120 h, dose level M1, time 5 day
[4] = 500 mg/kg, 72 h, dose level High, time 3 day

## CCN(CC)CCOc1ccc(/C(=C(/Cl)c2ccccc2)c2ccccc2)cc1 [ENCLOMIPHENE]
[1]
  ALBUMIN: 4.23 G/DL
  ALKALINE PHOSPHATASE: 396 u/L
  ASPARTATE AMINOTRANSFERASE: 74.33 u/L
  BLOOD UREA NITROGEN: 15 mg/dL
  CARBON DIOXIDE: 26 mmol/L
  CHLORIDE: 102.33 MEQ/L
  CHOLESTEROL: 19 mg/dL
  CREATINE PHOSPHOKINASE: 301 u/L
  CREATININE: 0.17 mg/dL
  GLUCOSE: 167.33 mg/dL
  LACTATE DEHYDROGENASE: 159.33 u/L
  PHOSPHORUS: 11.77 mg/dL
  POTASSIUM: 6.49 MEQ/L
  SODIUM: 144.63 MEQ/L
  TOTAL BILIRUBIN: 0.13 mg/dL
  TOTAL PROTEIN: 6.17 G/DL
  URIC ACID: 1.3 mg/dL
[2]
  ABSOLUTE BASOPHIL: 0 CELLS/uL
  ABSOLUTE EOSINOPHIL: 257 CELLS/uL
  ABSOLUTE LYMPHOCYTE: 8100 CELLS/uL
  ABSOLUTE SEGMENTED NEUTROPHIL: 6509.67 CELLS/uL
  BASOPHIL: 0%
  EOSINOPHIL: 1.67%
  ERYTHROCYTE COUNT: 6.81 x10E6/uL
  HEMATOCRIT: 42.67%
  LEUKOCYTE COUNT: 14.87 x10E3/uL
  LYMPHOCYTE: 63%
  MEAN CORPUSCULAR HEMOGLOBIN: 22.93 pg
  MEAN CORPUSCULAR HEMOGLOBIN CONCENTRATION: 36.33 G/DL
  MEAN CORPUSCULAR VOLUME: 63.07 fL
  MONOCYTE: 0%
  NEUTROPHIL: 35.33%
  NUCLEATED RED BLOOD CELLS: 0 /100WBC
  PLATELET COUNT: 1358.67 x10E3/uL
  ALANINE AMINOTRANSFERASE: 103.33 u/L
  ALBUMIN: 3.87 G/DL
  ALKALINE PHOSPHATASE: 393.33 u/L
  ASPARTATE AMINOTRANSFERASE: 112.33 u/L
  BLOOD UREA NITROGEN: 17 mg/dL
  CARBON DIOXIDE: 21.67 mmol/L
  CHLORIDE: 104.67 MEQ/L
  CHOLESTEROL: 20.67 mg/dL
  CREATINE PHOSPHOKINASE: 596.67 u/L
  CREATININE: 0.17 mg/dL
  GLUCOSE: 156.67 mg/dL
  LACTATE DEHYDROGENASE: 305 u/L
  PHOSPHORUS: 12.63 mg/dL
  POTASSIUM: 6.02 MEQ/L
  SODIUM: 145 MEQ/L
  TOTAL BILIRUBIN: 0.0667 mg/dL
  TOTAL PROTEIN: 5.43 G/DL
  URIC ACID: 2.13 mg/dL
[3]
  ABSOLUTE BASOPHIL: 0 CELLS/uL
  ABSOLUTE EOSINOPHIL: 97.33 CELLS/uL
  ABSOLUTE LYMPHOCYTE: 15789.33 CELLS/uL
  ABSOLUTE SEGMENTED NEUTROPHIL: 1980 CELLS/uL
  BASOPHIL: 0%
  EOSINOPHIL: 0.67%
  ERYTHROCYTE COUNT: 7.29 x10E6/uL
  HEMATOCRIT: 44.07%
  LEUKOCYTE COUNT: 17.87 x10E3/uL
  LYMPHOCYTE: 88.33%
  MEAN CORPUSCULAR HEMOGLOBIN: 22.33 pg
  MEAN CORPUSCULAR HEMOGLOBIN CONCENTRATION: 36.8 G/DL
  MEAN CORPUSCULAR VOLUME: 60.6 fL
  MONOCYTE: 0%
  NEUTROPHIL: 11%
  NUCLEATED RED BLOOD CELLS: 0 /100WBC
  PLATELET COUNT: 1119 x10E3/uL
  ALANINE AMINOTRANSFERASE: 135 u/L
  ALBUMIN: 3.8 G/DL
  ALKALINE PHOSPHATASE: 350 u/L
  ASPARTATE AMINOTRANSFERASE: 128 u/L
  BLOOD UREA NITROGEN: 17.67 mg/dL
  CARBON DIOXIDE: 25.33 mmol/L
  CHLORIDE: 104.33 MEQ/L
  CHOLESTEROL: 27.67 mg/dL
  CREATINE PHOSPHOKINASE: 820.67 u/L
  CREATININE: 0.15 mg/dL
  GLUCOSE: 142.67 mg/dL
  LACTATE DEHYDROGENASE: 135 u/L
  PHOSPHORUS: 11.73 mg/dL
  POTASSIUM: 6.75 MEQ/L
  SODIUM: 147.17 MEQ/L
  TOTAL BILIRUBIN: 0.1 mg/dL
  TOTAL PROTEIN: 5.37 G/DL
  URIC ACID: 1.8 mg/dL
[4]
  ABSOLUTE BASOPHIL: 0 CELLS/uL
  ABSOLUTE EOSINOPHIL: 68.67 CELLS/uL
  ABSOLUTE LYMPHOCYTE: 11139 CELLS/uL
  ABSOLUTE SEGMENTED NEUTROPHIL: 1343.67 CELLS/uL
  BASOPHIL: 0%
  EOSINOPHIL: 0.67%
  ERYTHROCYTE COUNT: 6.43 x10E6/uL
  HEMATOCRIT: 40.43%
  LEUKOCYTE COUNT: 12.83 x10E3/uL
  LYMPHOCYTE: 86.67%
  MEAN CORPUSCULAR HEMOGLOBIN: 24.7 pg
  MEAN CORPUSCULAR HEMOGLOBIN CONCENTRATION: 39.23 G/DL
  MEAN CORPUSCULAR VOLUME: 62.87 fL
  MONOCYTE: 2%
  NEUTROPHIL: 10.67%
  NUCLEATED RED BLOOD CELLS: 0 /100WBC
  PLATELET COUNT: 1271 x10E3/uL
  ALANINE AMINOTRANSFERASE: 113.33 u/L
  ALBUMIN: 3.63 G/DL
  ALKALINE PHOSPHATASE: 288.33 u/L
  ASPARTATE AMINOTRANSFERASE: 124 u/L
  BLOOD UREA NITROGEN: 11 mg/dL
  CARBON DIOXIDE: 32 mmol/L
  CHLORIDE: 105.33 MEQ/L
  CHOLESTEROL: 25.33 mg/dL
  CREATINE PHOSPHOKINASE: 861 u/L
  CREATININE: 0.1 mg/dL
  GLUCOSE: 141 mg/dL
  LACTATE DEHYDROGENASE: 193.67 u/L
  PHOSPHORUS: 12.93 mg/dL
  POTASSIUM: 5.84 MEQ/L
  SODIUM: 146.17 MEQ/L
  TOTAL BILIRUBIN: 0.1 mg/dL
  TOTAL PROTEIN: 5.03 G/DL
  URIC ACID: 1.43 mg/dL
